The text below walks through data of PMC7909954 (eLife, 2021).

Structures are written as SMILES.

What is called Ki is the dissociation constant of the complex between target and ligand, obtained from inhibition or displacement. Low readings indicate a stronger hold on the target, high ones a looser hold on the target.

One assay concerns the target T1, SERT (Homo sapiens, UniProt P31645).
T1 construct: NIMH Psychoactive Drug Screening Program
The assay is described as follows: Radioligand binding counter-screen (NIMH PDSP). In general terms: Counterscreens check selectivity or assay interference.

The next assay deals with T2, α2C-adrenoreceptors (Homo sapiens, UniProt P18825).
T2 construct: NIMH Psychoactive Drug Screening Program
T2 sequence (P18825 1-462): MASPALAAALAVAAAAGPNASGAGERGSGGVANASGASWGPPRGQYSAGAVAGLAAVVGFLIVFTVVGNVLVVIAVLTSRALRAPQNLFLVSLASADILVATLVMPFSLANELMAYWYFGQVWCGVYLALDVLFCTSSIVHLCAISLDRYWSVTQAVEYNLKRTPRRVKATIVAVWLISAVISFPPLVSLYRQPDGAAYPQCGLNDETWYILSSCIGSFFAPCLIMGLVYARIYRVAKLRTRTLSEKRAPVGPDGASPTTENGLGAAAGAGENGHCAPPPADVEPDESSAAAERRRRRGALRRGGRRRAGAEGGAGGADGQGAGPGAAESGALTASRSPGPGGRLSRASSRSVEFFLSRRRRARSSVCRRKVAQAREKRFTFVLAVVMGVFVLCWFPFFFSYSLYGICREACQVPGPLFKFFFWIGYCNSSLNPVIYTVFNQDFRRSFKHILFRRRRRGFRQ
The assay is described as follows: Radioligand binding counter-screen (NIMH PDSP).

The target of assay [1] is T3, MOR (Homo sapiens, UniProt P35372).
For assay [2], the target named is T3, MOR. The assay is described as follows: Radioligand binding counter-screen (NIMH PDSP). The arrangement: NIMH Psychoactive Drug Screening Program.

T1 sequence (P31645 whole entry, species assumed): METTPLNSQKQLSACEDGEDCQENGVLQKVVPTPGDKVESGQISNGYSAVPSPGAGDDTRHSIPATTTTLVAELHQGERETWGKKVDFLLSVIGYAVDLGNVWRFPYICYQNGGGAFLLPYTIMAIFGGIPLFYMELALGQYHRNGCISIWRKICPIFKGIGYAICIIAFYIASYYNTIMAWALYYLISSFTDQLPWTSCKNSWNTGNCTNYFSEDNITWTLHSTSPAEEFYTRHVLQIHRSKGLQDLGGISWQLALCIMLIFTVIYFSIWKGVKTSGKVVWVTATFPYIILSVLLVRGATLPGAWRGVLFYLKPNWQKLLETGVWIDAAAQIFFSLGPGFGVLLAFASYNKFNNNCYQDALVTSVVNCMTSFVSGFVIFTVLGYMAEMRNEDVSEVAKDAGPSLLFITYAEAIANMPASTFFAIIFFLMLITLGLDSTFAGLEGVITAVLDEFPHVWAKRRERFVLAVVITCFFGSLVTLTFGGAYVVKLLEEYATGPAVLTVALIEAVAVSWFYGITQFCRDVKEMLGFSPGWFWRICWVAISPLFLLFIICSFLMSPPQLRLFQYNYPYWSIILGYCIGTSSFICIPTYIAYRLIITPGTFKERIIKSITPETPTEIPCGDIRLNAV
T3 sequence (P35372 whole entry): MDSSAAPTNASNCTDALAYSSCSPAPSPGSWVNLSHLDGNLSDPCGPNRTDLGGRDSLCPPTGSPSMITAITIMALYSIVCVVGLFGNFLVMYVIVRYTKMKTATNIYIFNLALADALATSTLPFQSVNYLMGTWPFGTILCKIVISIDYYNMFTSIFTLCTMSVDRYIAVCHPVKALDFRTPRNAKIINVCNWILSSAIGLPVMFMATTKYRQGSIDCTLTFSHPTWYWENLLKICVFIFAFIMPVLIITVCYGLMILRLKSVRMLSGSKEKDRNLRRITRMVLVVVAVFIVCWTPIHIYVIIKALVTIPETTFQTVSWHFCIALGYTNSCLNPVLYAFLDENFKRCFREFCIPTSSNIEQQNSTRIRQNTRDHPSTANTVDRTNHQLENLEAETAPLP

For `NCc1cccc(C(=O)N[C@@H]2CCC3C4Cc5ccc(O)c6c5[C@@]3(CCN4CC3CC3)C2O6)c1` (stereo partly drawn) [MP1207, 3-(Aminomethyl)-N-((7R,12bS)−3-(cyclopropylmethyl)−9-hydroxy-2,3,4,4a,5,6,7,7a-octahydro-1H-4,12-methanobenzofuro[3,2-e]isoquinolin-7-yl)benzamide], the Ki was determined as 356 nM at SERT, 2980 nM on α2C-adrenoreceptors and 0.39 nM at MOR [2]. Further, the “selectivity for MOR and KOR over the nearest non-opioid target” value at SERT (from counter-screen Ki) came out at 900 fold. The “arrestin recruitment at hMOR (in words)” value on MOR [1] is reported as “completely abolished”.
